Reference: ChEMBL document CHEMBL1201862, “PubChem BioAssay data set” (2004)
Calls of active or inactive are those of the source.

Columns and labels:
[1] = NIH3T3 cell viability loss – ATP luminescence, mouse fibroblasts, counter-screen, dose response (AID 2010); format: functional, cell-based;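 further: cells exposed to compound for about 90 hours before reading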
[2] = Trypanosoma cruzi growth suppression in host cells – NIH3T3 host cells, beta-gal luminescence, confirmation (AID 2044); format: functional, cell-based;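 further: intracellular parasites grown in NIH/3T3 mouse fibroblasts as host cells; luminescent beta-galactosidase reporter signal from transgenic T. cruzi replicating inside host cells; inhibitors lower the luminescence signal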
Cytochrome P450 2C19 = Cytochrome P450 2C19 (Homo sapiens, UniProt P33261); test: Cytochrome panel assay with activity outcomes. Panel member name: p450-cyp2c19 Compounds with AC50 equal or less than 10 uM are considered active; format: functional
Streptococcus = test: GAS UMAA2166 growth inhibition – luminescence, BacTiterGlo, counter-screen for streptokinase expression inhibitor project, dose response (AID 1915); format: functional, organism-based;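 further: potency for reduction of bacterial viability or growth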
[3] = test system: Streptococcus sp. 'group A'; test: Streptococcus pyogenes SK(-)GAS viability under kanamycin – luminescence, BacTiterGlo, confirmation, counter-screen for streptokinase expression inhibitor project, dose response (AID 1900); format: functional, organism-based

Sequence of Cytochrome P450 2C19 (P33261 whole entry): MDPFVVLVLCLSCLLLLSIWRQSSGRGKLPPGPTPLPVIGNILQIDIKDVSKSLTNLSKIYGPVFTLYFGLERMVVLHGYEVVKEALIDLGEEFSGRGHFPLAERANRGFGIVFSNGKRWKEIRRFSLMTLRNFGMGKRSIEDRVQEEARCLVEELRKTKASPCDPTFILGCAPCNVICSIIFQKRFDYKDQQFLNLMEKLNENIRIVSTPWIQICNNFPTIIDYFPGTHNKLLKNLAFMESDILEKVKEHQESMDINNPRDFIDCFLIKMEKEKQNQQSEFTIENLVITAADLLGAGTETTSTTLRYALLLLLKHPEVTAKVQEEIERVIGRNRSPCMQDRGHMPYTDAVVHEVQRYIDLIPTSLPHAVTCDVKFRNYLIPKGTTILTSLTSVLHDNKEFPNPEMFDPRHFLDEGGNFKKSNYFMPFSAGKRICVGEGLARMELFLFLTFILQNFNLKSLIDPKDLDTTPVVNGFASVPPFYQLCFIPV

Structure (SMILES) | EC50 [1] | EC50 [2] | other results
CN(CCc1ccccn1)C1CCCN(S(=O)(=O)c2ccc(F)c(Cl)c2)C1 (stereo not given) | > 60 µM (not active) | 1.2 µM (active) | –
C[C@@H](C(=O)NCCc1ccccc1)N1C(=O)N2CCc3c([nH]c4ccccc34)[C@@]2(C)C1=O | > 60 µM (not active) | 2 µM (active) | –
Cc1cc(=O)oc2cc(O)c(CN(C)CC(=O)O)cc12 | – | – | AC50 (Cytochrome P450 2C19): inconclusive
Cc1nn2c(O)cc(C(C)(C)C)nc2c1-c1ccccc1 | 4.17 µM (active) | 1.85 µM (active) | EC50 (Streptococcus): 6.75 µM (active); EC50 [3]: 2.71 µM (active)
Cc1c(C(=O)Nc2ccc(-c3nnc4n3CCCCC4)cc2)oc2ccc(Br)cc12 | > 60 µM (not active) | 1.18 µM (active) | –
CC(C)C(=O)NC(=S)Nc1ccccc1N1CCN(C(=O)c2ccc(Cl)cc2)CC1 | > 60 µM (not active) | 1.47 µM (active) | –
CCn1c(S)nnc1CCNC(=O)c1ccc(Cl)cc1Cl | – | – | AC50 (Cytochrome P450 2C19; read-out: AC50): 10 µM (inconclusive)
CC(C)Cc1nnc(NC(=O)c2ccc([N+](=O)[O-])cc2)s1 | – | – | AC50 (Cytochrome P450 2C19): inconclusive
CC1CCN(CC(O)COCCC23CC4CC(CC(C4)C2)C3)CC1 (stereo not given) | > 60 µM (not active) | 0.164 µM (active) | –
COC(=O)[C@@]1(Cc2ccc(F)cc2)[C@H]2c3cc(C(=O)N(C)C)n(CCSCCO)c3C[C@H]2CN1C(=O)c1ccccc1 | – | – | AC50 (Cytochrome P450 2C19; read-out: AC50): 39.8 µM (inconclusive)
CC(Oc1ccccc1)C(=O)NC1C(=O)N2C1SC(C)(C)C2C(=O)O (stereo not given) | – | – | EC50 (Streptococcus): 0.124 µM (active); EC50 [3]: 0.11 µM (active)
Cc1ccc(S(=O)(=O)Cn2nnnc2C(C(C)C)N2CCN(c3nc4ccccc4s3)CC2)cc1 (stereo not given) | > 60 µM (inconclusive) | 0.532 µM (active) | –
Cc1onc(-c2ccccc2)c1C(=O)NNC(=S)NC(=O)/C=C/c1cccs1 | – | – | EC50 (Streptococcus): 2.02 µM (active); EC50 [3]: 1.02 µM (active)
CCOC(=O)c1c(NC(=O)CSc2nnnn2-c2ccccc2)sc2c1CC(C)(C)NC2(C)C | 8.34 µM (active) | 0.831 µM (active) | –
Cc1sc(NC(=O)c2ccco2)c(CN2CCN(Cc3ccccc3)CC2)c1C | > 30 µM (not active) | 3.39 µM (active) | –
COc1ccc(CNc2ccc(Cl)cc2)cc1Cn1ccnc1 | > 60 µM (not active) | 0.114 µM (active) | –
COc1ccc(NS(=O)(=O)c2cccc(NC(=O)c3cnccn3)c2)cc1Br | > 60 µM (not active) | 1.79 µM (active) | –
COCC1CCN(Cc2c[nH]nc2-c2cc3ccccc3o2)C1 (stereo not given) | > 60 µM (not active) | 0.76 µM (active) | –
COC(=O)c1ccc(-c2nc(CN3CCN(Cc4cccc(C)c4)CC3)c(C)o2)cc1 | > 60 µM (not active) | 0.164 µM (active) | –
O=C(NC1CCN(Cc2ccccc2)CC1)c1ccccc1 | 10.8 µM (active) | 0.721 µM (active) | –
CN1CCN(CC(O)COC(c2ccccc2)c2ccccc2)CC1 (stereo not given) | > 30 µM (not active) | 1.3 µM (active) | –
C/C(=N\NC(=O)Cc1ccc(Cl)cc1)c1ccccc1O | 10.8 µM (active) | 2.79 µM (active) | –
Cc1nn(Cc2ccc(Cl)cc2Cl)c(Cl)c1/C=N/NC(=O)CNc1cccc(C(F)(F)F)c1 | > 60 µM (inconclusive) | 2.62 µM (active) | –
C/C(CC(=O)Nc1ccccn1)=N\NC(=O)C(=O)Nc1cccc(Cl)c1C | – | – | AC50 (Cytochrome P450 2C19; read-out: AC50): 11.2 µM (inconclusive)
